Test results reported in patent publication US4918174A, “Tiacumicin compounds” (Abbott Laboratories, priority 1986, dated 1990).
Values after ≈ are worked out from the molar mass of the structure shown. Like-named read-outs stand apart in the source and are kept apart here.

Key:
[1] = test system: Staphylococcus aureus ATCC 6538; assay: Minimal Inhibitory Concentrations against common test organisms; format: cell-based
[2] = test system: Staphylococcus epidermidis 3519; assay: as above; format: cell-based
[3] = test system: Streptococcus pyogenes 930; assay: as above; format: cell-based
[4] = test system: Micrococcus luteus 9341; assay: as above; format: cell-based
[5] = test system: Micrococcus luteus 4698; assay: as above; format: cell-based
[6] = solubility; format: physicochemical
[7] = test system: Streptococcus faecium ATCC 8043; assay: Minimal Inhibitory Concentrations against common test organisms; format: cell-based; conditions: Enterococcus faecium, ATCC8043
[8] = test system: Esherichia coli Juhl; assay: as above; format: cell-based
[9] = test system: Pseudomonas aeruginosa A-5007; assay: as above; format: cell-based; conditions: A5007
[10] = test system: Bacteroides fragilis 784; assay: as above; format: cell-based
[11] = test system: Propionibacterium acnes 132; assay: as above; format: cell-based; conditions: Cutibacterium acnes
[12] = test system: Candida albicans ATCC 10231; assay: as above; format: cell-based; conditions: ATCC10231
[13] = test system: Gram-positive bacteria; assay: antibiotic activity against Gram-positive bacteria in vitro; format: cell-based; conditions: including strains resistant to currently used therapeutic antibiotics
[14] = ATCC6538, Staphylococcus aureus ATCC 6538, read-out: Minimal Inhibitory Concentrations

| SMILES | MIC [1, 14] [µg/mL] | MIC [2] [µg/mL] | MIC [3] [µg/mL] | MIC [4] [µg/mL] | solubility in acetonitrile [6] | solubility in benzene [6] | solubility in chloroform [6] | solubility in methanol [6] | solubility in water [6] | MIC [7] [µg/mL] | MIC [8] [µg/mL] | MIC [9] [µg/mL] | solubility in ether [6] | solubility in hexane [6] | MIC [12] [µg/mL] | antibiotic activity against a number of Gram-positive bacteria [13] | other results |
| --- | --- | --- | --- | --- | --- | --- | --- | --- | --- | --- | --- | --- | --- | --- | --- | --- | --- |
| CCC1CC=C(C)C=C(C)C(OC2OC(C)(C)C(OC(C)=O)C(O)C2O)C(CC)C=C(C)C(O)CC=CC=C(C)C(=O)O1 (centres unmarked) [Tiacumicin A] | 100 (≈ 165 µM) | 100 (≈ 165 µM) | 100 (≈ 165 µM) | 0.1 (≈ 0.165 µM) | sparingly soluble | readily soluble | readily soluble | readily soluble | insoluble | – | – | – | – | – | – | – | MIC [5]: 0.39 µg/mL (≈ 0.645 µM); solubility in acetone ([6]; acetone): sparingly soluble |
| CCc1c(Cl)c(O)c(Cl)c(O)c1C(=O)OC1C(C)OC(OCC2=CC=CCC(O)C(C)=CC(CC)C(OC3OC(C)(C)C(OC(=O)C(C)C)C(O)C3O)C(C)=CC(C)=CCC(C(C)O)OC2=O)C(OC)C1O (centres unmarked) [Tiacumicin B] | – | 12.5 (≈ 11.8 µM) | 12.5 (≈ 11.8 µM) | 0.1 (≈ 0.0945 µM) | readily soluble | sparingly soluble | sparingly soluble | readily soluble | insoluble | 12.5 (≈ 11.8 µM) | > 100 | > 100 | sparingly soluble | insoluble | > 100 | possessed antibiotic activity | MIC ([1]; Staphylococcus aureus, ATCC6538, read-out: Minimal Inhibitory Concentrations): 12.5 µg/mL (≈ 11.8 µM); MIC [10]: > 100 µg/mL; MIC [11]: 6.25 µg/mL (≈ 5.91 µM) |
| CCc1c(Cl)c(O)c(Cl)c(O)c1C(=O)OC1C(C)OC(OCC2=CC=CCC(O)C(C)=CC(CC)C(OC3OC(C)(C)C(O)C(O)C3OC(=O)C(C)C)C(C)=CC(C)=CCC(C(C)O)OC2=O)C(OC)C1O (centres unmarked) [Tiacumicin C] | 50 (≈ 47.3 µM) | 25 (≈ 23.6 µM) | 25 (≈ 23.6 µM) | ≤ 0.39 | readily soluble | sparingly soluble | sparingly soluble | readily soluble | insoluble | 100 (≈ 94.5 µM) | > 100 | > 100 | sparingly soluble | insoluble | > 100 | possessed antibiotic activity | – |
| CCc1c(Cl)c(O)c(Cl)c(O)c1C(=O)OC1C(O)C(C)OC(OCC2=CC=CCC(O)C(C)=CC(CC)C(OC3OC(C)(C)C(O)C(O)C3OC(=O)C(C)C)C(C)=CC(C)=CCC(C(C)O)OC2=O)C1OC (centres unmarked) [Tiacumicin D] | > 25 | > 25 | > 25 | 0.2 (≈ 0.189 µM) | readily soluble | sparingly soluble | sparingly soluble | readily soluble | insoluble | > 25 | > 25 | > 25 | sparingly soluble | insoluble | – | – | – |

Further lines, with some results ahead:

| MIC [1, 14] [µg/mL] | MIC [2] [µg/mL] | MIC [3] [µg/mL] | MIC [4] [µg/mL] | solubility in acetonitrile [6] | solubility in benzene [6] | solubility in chloroform [6] | solubility in methanol [6] | solubility in water [6] | MIC [7] [µg/mL] | MIC [8] [µg/mL] | MIC [9] [µg/mL] | solubility in ether [6] | solubility in hexane [6] | SMILES | MIC [12] [µg/mL] | antibiotic activity against a number of Gram-positive bacteria [13] | other results |
| --- | --- | --- | --- | --- | --- | --- | --- | --- | --- | --- | --- | --- | --- | --- | --- | --- | --- |
| 2.5 (≈ 2.39 µM) | 12.5 (≈ 12 µM) | 50 (≈ 47.9 µM) | – | readily soluble | sparingly soluble | sparingly soluble | readily soluble | insoluble | 12.5 (≈ 12 µM) | > 100 | > 100 | sparingly soluble | insoluble | CCC(=O)OC1C(OC2C(C)=CC(C)=CCC(C(C)O)OC(=O)C(COC3OC(C)C(OC(=O)c4c(O)c(Cl)c(O)c(Cl)c4CC)C(O)C3OC)=CC=CCC(O)C(C)=CC2CC)OC(C)(C)C(O)C1O (centres unmarked) [Tiacumicin E] | – | – | – |
| 12.5 (≈ 11.8 µM) | 12.5 (≈ 11.8 µM) | 12.5 (≈ 11.8 µM) | 6.2 (≈ 5.86 µM) | readily soluble | sparingly soluble | sparingly soluble | readily soluble | insoluble | 6.2 (≈ 5.86 µM) | > 100 | > 100 | sparingly soluble | insoluble | CCc1c(Cl)c(O)c(Cl)c(O)c1C(=O)OC1C(C)OC(OCC2=CC=CCC(O)C(C)=CC(CC)C(OC3OC(C)(C)C(O)C(OC(=O)C(C)C)C3O)C(C)=CC(C)=CCC(C(C)O)OC2=O)C(OC)C1O (centres unmarked) [Tiacumicin F] | – | – | – |
